The IC50 is the concentration at which inhibition is half-maximal. A higher IC50 goes with weaker potency.

In the first assay the target is T1, Human MAT2A (Homo sapiens, UniProt P31153).
T1 construct: Human MAT2A: Cepter, amino acids 1-395 Clone ID 334, lot 00023-148; purchased Cepter clone ID 334, lot 00023-148
T1 sequence (P31153 whole entry, the tested form may be a part): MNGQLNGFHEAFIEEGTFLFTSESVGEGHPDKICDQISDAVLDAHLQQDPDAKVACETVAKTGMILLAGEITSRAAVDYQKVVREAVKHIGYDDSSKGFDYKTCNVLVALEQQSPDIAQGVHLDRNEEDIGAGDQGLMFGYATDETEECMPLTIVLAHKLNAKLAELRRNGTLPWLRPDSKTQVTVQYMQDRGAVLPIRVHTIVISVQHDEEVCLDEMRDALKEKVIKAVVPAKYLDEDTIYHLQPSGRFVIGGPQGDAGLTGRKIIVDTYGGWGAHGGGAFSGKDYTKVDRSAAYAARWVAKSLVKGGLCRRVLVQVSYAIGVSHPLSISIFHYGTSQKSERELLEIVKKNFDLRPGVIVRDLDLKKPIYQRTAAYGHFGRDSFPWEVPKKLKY
Description: Phosphate Sensor Fluorescence Assay (Biologic Example A). The note with it: MAT2A inhibition, Biological Example A procedure (Compounds 1.001-1.028); 500 uM L-methionine, 500 uM ATP. In kind it is biochemical. The method, then: (§1) The ability of the compound of present disclosure to inhibit MAT2A enzyme was determined using a Phosphate Sensor Fluorescence Assay described below.
Biologic Example A. Phosphate Sensor Fluorescence Assay
(§2) MAT2A enzyme is incubated with a test compound in DMSO or DMSO and its substrates (L-methionine and ATP) in a microtiter plate. The enzymatic reaction is stopped by the addition of Working Phosphate Sensor Mixture. The plate is analyzed for fluorescence at 450 nm. The high control (DMSO with enzyme and its substrates) gives high fluorescence which represents no inhibition of enzymatic activity while the low control (DMSO with MAT2A substrates and no enzyme) gives low fluorescence which represents full inhibition of enzymatic activity.
• Human MAT2A: Cepter, amino acids 1-395 • Tris, pH 7.5: Invitrogen cat #15567-027 • KCl: Ambion cat #AM9640G • MgCl2: Ambion cat #AM9530G • Brij-35: Sigma cat B4184-10ML • DTT: Goldbio cat #DTT100 • BGG: Sigma cat #G5009-25G • PNP: Novus Biologicals cat #NBP1-50872 • 7-MEG: Cayman Chemical cat #15988 • L-Methionine: Alfa Aesar cat #J61904 • ATP: Alfa Aesar cat #J60336 • Phosphate Sensor: Thermo Fisher cat #PV4407 • EDTA: Life Tech cat #15575-038 • Assay plate: 384-well black polypropylene plate: Thomas Scientific cat #1149Q35
• Assay Buffer: 50 mM Tris, pH 7.5/50 mM KCl/10 mM MgCl2/0.01% Brij-35/1 mM DTT/0.1% BGG/40 nM PNP/6 uM 7-MEG • MAT2A: 10 nM for Cepter clone ID 329, lot 00023-123 before the addition of Working Phosphate Sensor Mixture • 5 nM for Cepter clone ID 334, lot 00023-148 before the addition of Working Phosphate Sensor Mixture • L-methionine: 500 uM before the addition of Working Phosphate Sensor Mixture • ATP: 500 uM before the addition of Working Phosphate Sensor Mixture
(§3) For the assay, a mixture of 1 mM L-methionine/1 mM ATP (2× final pre-stopped concentration) in assay buffer; MAT2A (2× final pre-stopped concentration) in Assay Buffer and Working Phosphate Sensor Mixture (1.5 uM Phosphate Sensor/30 mM EDTA in Assay Buffer, which is 3× final concentrations) were prepared. Test compounds or DMSO were added to the appropriate well suing D300e digital dispenser. 5 μl/well of Assay Buffer was added to the wells corresponding to the negative control and 5 μl/well of MAT2A was added to all the wells except for those corresponding to the negative control. After incubating the plate at room temperature for 15 minutes, 5 μl/well of the 1 mM L-methionine/1 mM ATP mixture was added to all wells. The plate was centrifuged at 1000 rpm for 1 minute and then incubated at room temperature for 1 hour. 5 μl of the Working Phosphate Sensor Mixture was added to all wells and the plate was centrifuged at 1000 rpm for 1 minute. The plate was read for fluorescence at 450 nm after exciting at 430 nm.
(§4) Percent inhibition was calculated in Chemical and Biological Information System (CBIS), (ChemInnovation Software Inc.). Curves were fitted by CBIS as % inhibition vs. log [compound concentration] using a 4-parameter inhibition model.
(§5) Fit=(A+((B−A)/(1+((C/x)^D))))
(§6) Compounds 1.001-1.028 were tested using the procedure described in Bioogical Example A, described above. Compounds 1.029-1.070 were tested using the procedure described in Biological Example B, described above.
The molecule `CC(c1c[nH]cn1)n1c(=O)nc(N2CC[C@@H](O)C2)c2ccc(C(F)(F)F)cc21` (mixture of isomers) [1.012, 1-(1-(1H-imidazol-4-yl)ethyl)-4-((R)-3-hydroxypyrrolidin-1-yl)-7-(trifluoromethyl)quinazolin-2(1H)-one] yielded an IC50 of 10 to 200 nM.

For `CC(c1c[nH]cn1)n1c(=O)nc(N2CC[C@H](O)C2)c2ccc(C(F)(F)F)cc21` (mixture of isomers) [1.019, 1-(1-(1H-imidazol-4-yl)ethyl)-4-((S)-3-hydroxypyrrolidin-1-yl)-7-(trifluoromethyl)quinazolin-2(1H)-one], the IC50 was 200 to 500 nM.

On to `CC(c1c[nH]cn1)n1c(=O)nc(N2CC[C@@H](CO)C2)c2ccc(C(F)(F)F)cc21` (mixture of isomers) [1.020, 1-(1-(1H-imidazol-4-yl)ethyl)-4-((R)-3-(hydroxymethyl)pyrrolidin-1-yl)-7-(trifluoromethyl)quinazolin-2(1H)-one], for which the IC50 lay within 200 to 500 nM.

Take `CNc1nc(=O)n(C(C)c2c[nH]cn2)c2cc(C(F)(F)F)ccc12` (racemic) [1.007, 1-(1-(1H-imidazol-4-yl)ethyl)-4-(methylamino)-7-(trifluoromethyl)quinazolin-2(1H)-one]: the IC50 was in the range of 10 to 200 nM.

With `CNc1nc(=O)n([C@H](C)c2c[nH]cn2)c2cc(C(F)(F)F)ccc12` (single isomer, unassigned) [1.008], the IC50 was in the range of 10 to 200 nM.

In turn, `CNc1nc(=O)n([C@@H](C)c2c[nH]cn2)c2cc(C(F)(F)F)ccc12` (single isomer, unassigned) [1.009] returned an IC50 of 10 to 200 nM.

The molecule `C[C@H](c1c[nH]cn1)n1c(=O)nc(N2CC[C@@H](O)C2)c2ccc(C(F)(F)F)cc21` (single isomer, unassigned) [1.013] yielded an IC50 of 10 to 200 nM.

Take `C[C@@H](c1c[nH]cn1)n1c(=O)nc(N2CC[C@@H](O)C2)c2ccc(C(F)(F)F)cc21` (single isomer, unassigned) [1.014]: the IC50 was 10 to 200 nM.

`C[C@H](c1c[nH]cn1)n1c(=O)nc(N(C)C)c2ccc(C(F)(F)F)cc21` (single isomer, unassigned) [1.016] registered an IC50 of 10 to 200 nM.

`C[C@@H](c1c[nH]cn1)n1c(=O)nc(N(C)C)c2ccc(C(F)(F)F)cc21` (single isomer, unassigned) [1.017] yielded an IC50 of 10 to 200 nM.

As for `CO[C@H]1CCN(c2nc(=O)n([C@H](C)c3c[nH]cn3)c3cc(C(F)(F)F)ccc23)C1` (single isomer, unassigned) [1.021], the IC50 lay within 200 to 500 nM.

`CO[C@H]1CCN(c2nc(=O)n([C@@H](C)c3c[nH]cn3)c3cc(C(F)(F)F)ccc23)C1` (single isomer, unassigned) [1.022] yielded a 50% inhibitory concentration (IC50) of 1000 to 10000 nM.

`C[C@H](c1c[nH]cn1)n1c(=O)nc(N2CCCC2)c2ccc(C(F)(F)F)cc21` (single isomer, unassigned) [1.023] returned an IC50 of 10 to 200 nM.

For the molecule `C[C@@H](c1c[nH]cn1)n1c(=O)nc(N2CCCC2)c2ccc(C(F)(F)F)cc21` (single isomer, unassigned) [1.024], the IC50 lay in the range of 10 to 200 nM.

In the case of `CO[C@@H]1CCN(c2nc(=O)n([C@H](C)c3c[nH]cn3)c3cc(C(F)(F)F)ccc23)C1` (single isomer, unassigned) [1.025], the IC50 was in the range of 10 to 200 nM.

As for `CO[C@@H]1CCN(c2nc(=O)n([C@@H](C)c3c[nH]cn3)c3cc(C(F)(F)F)ccc23)C1` (single isomer, unassigned) [1.026], the IC50 was 200 to 500 nM.

In turn, `C[C@H](c1c[nH]cn1)n1c(=O)nc(N2CCC2)c2ccc(C(F)(F)F)cc21` (single isomer, unassigned) [1.027] came in with an IC50 of 200 to 500 nM.

In turn, `C[C@@H](c1c[nH]cn1)n1c(=O)nc(N2CCC2)c2ccc(C(F)(F)F)cc21` (single isomer, unassigned) [1.028] displayed a half-inhibitory concentration (IC50) of 10 to 200 nM.

Regarding `CNc1nc(=O)n(Cc2c[nH]cn2)c2cc(Cl)ccc12` [1.001, 1-((1H-imidazol-4-yl)methyl)-7-chloro-4-(methylamino)quinazolin-2(1H)-one], the IC50 was 10 to 200 nM.

Regarding `CNc1nc(=O)n([C@H](C)c2cscn2)c2cc(C(F)(F)F)ccc12` [1.002, (R)-4-(methylamino)-1-(1-(thiazol-4-yl)ethyl)-7-(trifluoromethyl)quinazolin-2(1H)-one], the 50% inhibitory concentration (IC50) fell in the range of 500 to 1000 nM.

The molecule `CNc1nc(=O)n(Cc2c[nH]cn2)c2cc(C(F)(F)F)ccc12` [1.003, 1-((1H-imidazol-4-yl)methyl)-4-(methylamino)-7-(trifluoromethyl)quinazolin-2(1H)-one] displayed an IC50 of 10 to 200 nM.

A further assay concerns the target T1, Human MAT2A. Put plainly: Phosphate Sensor Fluorescence Assay (Biologic Example B). The class given is biochemical. Particulars: MAT2A inhibition, Biological Example B procedure (Compounds 1.029-1.070); 5.8 nM MAT2A, 500 uM L-methionine, 500 uM ATP. As to the method:
as §1
Biologic Example B. Phosphate Sensor Fluorescence Assay
as §2
• Human MAT2A: Cepter, amino acids 1-395 Clone ID 334, lot 00023-148 • Tris, pH 7.5: Invitrogen cat #15567-027 • KCl: Ambion cat #AM9640G • MgCl2: Ambion cat #AM9530G • Brij-35: Sigma cat B4184-10ML • DTT: Goldbio cat #DTT100 • BGG: Sigma cat #G5009-25G • PNP: Novus Biologicals cat #NBP1-50872 • 7-MEG: Cayman Chemical cat #15988 • L-Methionine: JTBaker P/N 2085-05 • ATP: Promega P/N V915B • Phosphate Sensor: Invitrogen cat #PV4407 • EDTA: Life Tech cat #15575-038 • Assay plate: 384-well black polypropylene plate: Corning P/N 3573
• Assay Buffer: 50 mM Tris, pH 7.5/50 mM KCl/10 mM MgCl2/0.01% Brij-35/1 mM DTT/0.01% BGG/40 nM PNP/6 uM 7-MEG • MAT2A: 5.8 nM MAT2A (1-395), Cepter, clone ID 334, lot 00023-148 before the addition of Working Phosphate Sensor Mixture • L-methionine: 500 uM before the addition of Working Phosphate Sensor Mixture • ATP: 500 uM before the addition of Working Phosphate Sensor Mixture
as §3, with “using a Beckman Coulter Echo 550 acoustic liquid handler. 10 μL/well” for “suing D300e digital dispenser. 5 μl/well”, “10 μL/well” for “5 μl/well”, “10 μL” for “5 μl”, “nm on a Tecan Spark microplate reader.” for “nm.”
as §4, §5, §6
As for `CN(C)c1nc(=O)n(CC2CNC(=O)C2)c2cc(C(F)(F)F)ccc12` (stereo not drawn) [1.057, 4-(Dimethylamino)-1-((5-oxopyrrolidin-3-yl)methyl)-7-(trifluoromethyl)quinazolin-2(1H)-one], the IC50 lay in the range of 500 to 1000 nM.

As to `CN(C)c1nc(=O)n(Cc2cn(C)cn2)c2cc(C(F)(F)F)ccc12` [1.058, 4-(Dimethylamino)-1-((1-methyl-1H-imidazol-4-yl)methyl)-7-(trifluoromethyl)quinazolin-2(1H)-one], the IC50 is 1000 to 10000 nM.

Turning to `CNc1nc(=O)n(Cc2cnco2)c2cc(C(F)(F)F)ccc12` [1.065, 4-(Methylamino)-1-(oxazol-5-ylmethyl)-7-(trifluoromethyl)quinazolin-2(1H)-one], the IC50 lay within 500 to 1000 nM.

`CNc1nc(=O)n(Cc2cocn2)c2cc(C(F)(F)F)ccc12` [1.066, 4-(Methylamino)-1-(oxazol-4-ylmethyl)-7-(trifluoromethyl)quinazolin-2(1H)-one] displayed an IC50 of 10 to 200 nM.

`CNc1nc(=O)n(Cc2cscn2)c2cc(C(F)(F)F)ccc12` [1.067, 4-(Methylamino)-1-(thiazol-4-ylmethyl)-7-(trifluoromethyl)quinazolin-2(1H)-one] gave an IC50 of 1000 to 10000 nM.

Take `CNc1nc(=O)n(Cc2cncs2)c2cc(C(F)(F)F)ccc12` [1.068, 4-(Methylamino)-1-(thiazol-5-ylmethyl)-7-(trifluoromethyl)quinazolin-2(1H)-one]: the IC50 lay within 500 to 1000 nM.

The record behind these values is patent US20240208965A1, “HETEROARYL ALKYLENE SUBSTITUTED 2-OXOQUINAZOLINE DERIVATIVES AS METHIONINE ADENOSYLTRANSFERASE 2A INHIBITORS” (IDEAYA BIOSCIENCES, INC., priority 2020, published 2024).
